Source: ChEMBL document CHEMBL1151757, “Synthesis, radiosynthesis, and biological evaluation of fluorine-18-labeled 2beta-carbo(fluoroalkoxy)-3beta-(3'-((Z)-2-haloethenyl)phenyl)nortropanes: candidate radioligands for in vivo imaging of the serotonin transporter with positron emission tomography” (J Med Chem, 2008)

Columns and labels:
[1] = Ratio of drug uptake in pons to cerebellum in anesthetized cynomolgus monkey after 85 mins postinjection; assay type: ADME, organism-based, Macaca fascicularis; settings: in vivo
[2] = Ratio of drug uptake in pons to cerebellum in anesthetized cynomolgus monkey after 95 mins postinjection; assay type: ADME, organism-based, Macaca fascicularis; settings: in vivo
[3] = Ratio of drug uptake in pons to cerebellum in anesthetized cynomolgus monkey after 125 mins postinjection; assay type: ADME, organism-based, Macaca fascicularis; settings: in vivo
[4] = Ratio of drug uptake in medulla to cerebellum in anesthetized cynomolgus monkey after 1.5 mins postinjection; assay type: ADME, organism-based, Macaca fascicularis; settings: in vivo, 0.025 h
[5] = Ratio of drug uptake in medulla to cerebellum in anesthetized cynomolgus monkey after 195 mins postinjection; assay type: ADME, organism-based, Macaca fascicularis; settings: in vivo, 3.25 h
[6] = Drug uptake in anesthetized cynomolgus monkey brain occipital lobe after 6.5 mins postinjection; assay type: ADME, organism-based, Macaca fascicularis; design: unit not given here; settings: in vivo
[7] = Drug uptake in anesthetized cynomolgus monkey brain occipital lobe after 9.5 mins postinjection; assay type: ADME, organism-based, Macaca fascicularis; settings: in vivo
[8] = Drug uptake in anesthetized cynomolgus monkey brain occipital lobe after 65 mins postinjection; assay type: ADME, organism-based, Macaca fascicularis; settings: in vivo
[9] = Drug uptake in anesthetized cynomolgus monkey brain occipital lobe after 105 mins postinjection; assay type: ADME, organism-based, Macaca fascicularis; settings: in vivo, 1.75 h
[10] = Drug uptake in anesthetized cynomolgus monkey brain frontal lobe after 2.5 mins postinjection; assay type: ADME, organism-based, Macaca fascicularis; settings: in vivo
[11] = Drug uptake in anesthetized cynomolgus monkey brain frontal lobe after 18.5 mins postinjection; assay type: ADME, organism-based, Macaca fascicularis; settings: in vivo
[12] = Drug uptake in anesthetized cynomolgus monkey brain frontal lobe after 27.5 mins postinjection; assay type: ADME, organism-based, Macaca fascicularis; settings: in vivo
[13] = Drug uptake in anesthetized cynomolgus monkey brain frontal lobe after 35 mins postinjection; assay type: ADME, organism-based, Macaca fascicularis; settings: in vivo
[14] = Drug uptake in anesthetized cynomolgus monkey brain frontal lobe after 95 mins postinjection; assay type: ADME, organism-based, Macaca fascicularis; settings: in vivo
[15] = Drug uptake in anesthetized cynomolgus monkey brain frontal lobe after 215 mins postinjection; assay type: ADME, organism-based, Macaca fascicularis; settings: in vivo
[16] = Ratio of drug uptake in occipital lobe to cerebellum in anesthetized cynomolgus monkey after 175 mins postinjection; assay type: ADME, organism-based, Macaca fascicularis; settings: in vivo
Putamen [17] = experiment: Drug uptake in anesthetized cynomolgus monkey brain putamen after 145 mins postinjection; assay type: ADME, organism-based, Macaca fascicularis; settings: in vivo
Putamen [18] = experiment: Drug uptake in anesthetized cynomolgus monkey brain putamen after 165 mins postinjection; assay type: ADME, organism-based, Macaca fascicularis; settings: in vivo, 2.75 h
Putamen [19] = experiment: Drug uptake in anesthetized cynomolgus monkey brain putamen after 235 mins postinjection; assay type: ADME, organism-based, Macaca fascicularis; settings: in vivo
[20] = Ratio of drug uptake in occipital lobe to cerebellum in anesthetized cynomolgus monkey after 235 mins postinjection; assay type: ADME, organism-based, Macaca fascicularis; settings: in vivo
[21] = Ratio of drug uptake in frontal lobe to cerebellum in anesthetized cynomolgus monkey after 95 mins postinjection; assay type: ADME, organism-based, Macaca fascicularis; settings: in vivo
Pons [22] = experiment: Drug uptake in anesthetized cynomolgus monkey brain pons after 0.5 mins postinjection; assay type: ADME, organism-based, Macaca fascicularis; settings: in vivo
Pons [23] = experiment: Drug uptake in anesthetized cynomolgus monkey brain pons after 3.5 mins postinjection; assay type: ADME, organism-based, Macaca fascicularis; settings: in vivo
Pons [24] = experiment: Drug uptake in anesthetized cynomolgus monkey brain pons after 4.5 mins postinjection; assay type: ADME, organism-based, Macaca fascicularis; settings: in vivo, 0.075 h
Pons [25] = experiment: Drug uptake in anesthetized cynomolgus monkey brain pons after 105 mins postinjection; assay type: ADME, organism-based, Macaca fascicularis; settings: in vivo, 1.75 h
Thalamus [26] = experiment: Drug uptake in anesthetized cynomolgus monkey brain thalamus after 205 mins postinjection; assay type: ADME, organism-based, Macaca fascicularis; settings: in vivo
Pons [27] = experiment: Drug uptake in anesthetized cynomolgus monkey brain pons after 195 mins postinjection; assay type: ADME, organism-based, Macaca fascicularis; settings: in vivo, 3.25 h
Pons [28] = experiment: Drug uptake in anesthetized cynomolgus monkey brain pons after 205 mins postinjection; assay type: ADME, organism-based, Macaca fascicularis; settings: in vivo
[29] = Drug uptake in anesthetized cynomolgus monkey brain cerebellum after 205 mins postinjection; assay type: ADME, organism-based, Macaca fascicularis; settings: in vivo
[30] = Ratio of drug uptake in frontal lobe to cerebellum in anesthetized cynomolgus monkey after 235 mins postinjection; assay type: ADME, organism-based, Macaca fascicularis; settings: in vivo
Caudate [31] = experiment: Drug uptake in anesthetized cynomolgus monkey brain caudate after 195 mins postinjection; assay type: ADME, organism-based, Macaca fascicularis, Caudate nucleus; settings: in vivo, 3.25 h
Caudate [32] = experiment: Drug uptake in anesthetized cynomolgus monkey brain caudate after 205 mins postinjection; assay type: ADME, organism-based, Macaca fascicularis, Caudate nucleus; settings: in vivo
[33] = Ratio of drug uptake in caudate to cerebellum in anesthetized cynomolgus monkey after 18.5 mins postinjection; assay type: ADME, organism-based, Macaca fascicularis; settings: in vivo
[34] = Ratio of drug uptake in caudate to cerebellum in anesthetized cynomolgus monkey after 155 mins postinjection; assay type: ADME, organism-based, Macaca fascicularis; settings: in vivo
Pons [35] = experiment: Drug uptake in anesthetized cynomolgus monkey brain pons after 165 mins postinjection; assay type: ADME, organism-based, Macaca fascicularis; settings: in vivo, 2.75 h
Pons [36] = experiment: Drug uptake in anesthetized cynomolgus monkey brain pons after 175 mins postinjection; assay type: ADME, organism-based, Macaca fascicularis; settings: in vivo
Medulla [37] = experiment: Drug uptake in anesthetized cynomolgus monkey brain medulla after 0.5 mins postinjection; assay type: ADME, organism-based, Macaca fascicularis; settings: in vivo
Medulla [38] = experiment: Drug uptake in anesthetized cynomolgus monkey brain medulla after 4.5 mins postinjection; assay type: ADME, organism-based, Macaca fascicularis; settings: in vivo, 0.075 h
Medulla [39] = experiment: Drug uptake in anesthetized cynomolgus monkey brain medulla after 9.5 mins postinjection; assay type: ADME, organism-based, Macaca fascicularis; settings: in vivo
Medulla [40] = experiment: Drug uptake in anesthetized cynomolgus monkey brain medulla after 105 mins postinjection; assay type: ADME, organism-based, Macaca fascicularis; settings: in vivo, 1.75 h
[41] = Ratio of drug uptake in putamen to cerebellum in anesthetized cynomolgus monkey after 3.5 mins postinjection; assay type: ADME, organism-based, Macaca fascicularis; settings: in vivo
[42] = Ratio of drug uptake in putamen to cerebellum in anesthetized cynomolgus monkey after 6.5 mins postinjection; assay type: ADME, organism-based, Macaca fascicularis; settings: in vivo
[43] = Ratio of drug uptake in putamen to cerebellum in anesthetized cynomolgus monkey after 9.5 mins postinjection; assay type: ADME, organism-based, Macaca fascicularis; settings: in vivo
[44] = Ratio of drug uptake in putamen to cerebellum in anesthetized cynomolgus monkey after 35 mins postinjection; assay type: ADME, organism-based, Macaca fascicularis; settings: in vivo
Medulla [45] = experiment: Drug uptake in anesthetized cynomolgus monkey brain medulla after 125 mins postinjection; assay type: ADME, organism-based, Macaca fascicularis; settings: in vivo
Medulla [46] = experiment: Drug uptake in anesthetized cynomolgus monkey brain medulla after 235 mins postinjection; assay type: ADME, organism-based, Macaca fascicularis; settings: in vivo
[47] = Drug uptake in anesthetized cynomolgus monkey brain cerebellum after 0.5 mins postinjection; assay type: ADME, organism-based, Macaca fascicularis; settings: in vivo
[48] = Drug uptake in anesthetized cynomolgus monkey brain cerebellum after 35 mins postinjection; assay type: ADME, organism-based, Macaca fascicularis; settings: in vivo
[49] = Drug uptake in anesthetized cynomolgus monkey brain cerebellum after 45 mins postinjection; assay type: ADME, organism-based, Macaca fascicularis; settings: in vivo, 0.75 h
[50] = Ratio of drug uptake in putamen to cerebellum in anesthetized cynomolgus monkey after 215 mins postinjection; assay type: ADME, organism-based, Macaca fascicularis; settings: in vivo
[51] = Ratio of drug uptake in thalamus to cerebellum in anesthetized cynomolgus monkey after 155 mins postinjection; assay type: ADME, organism-based, Macaca fascicularis; settings: in vivo
Caudate [52] = experiment: Drug uptake in anesthetized cynomolgus monkey brain caudate after 2.5 mins postinjection; assay type: ADME, organism-based, Macaca fascicularis, Caudate nucleus; settings: in vivo
Caudate [53] = experiment: Drug uptake in anesthetized cynomolgus monkey brain caudate after 3.5 mins postinjection; assay type: ADME, organism-based, Macaca fascicularis, Caudate nucleus; settings: in vivo
Caudate [54] = experiment: Drug uptake in anesthetized cynomolgus monkey brain caudate after 22.5 mins postinjection; assay type: ADME, organism-based, Macaca fascicularis, Caudate nucleus; settings: in vivo, 0.375 h
Caudate [55] = experiment: Drug uptake in anesthetized cynomolgus monkey brain caudate after 55 mins postinjection; assay type: ADME, organism-based, Macaca fascicularis, Caudate nucleus; settings: in vivo
Caudate [56] = experiment: Drug uptake in anesthetized cynomolgus monkey brain caudate after 95 mins postinjection; assay type: ADME, organism-based, Macaca fascicularis, Caudate nucleus; settings: in vivo
Caudate [57] = experiment: Drug uptake in anesthetized cynomolgus monkey brain caudate after 235 mins postinjection; assay type: ADME, organism-based, Macaca fascicularis, Caudate nucleus; settings: in vivo
Thalamus [58] = experiment: Drug uptake in anesthetized cynomolgus monkey brain thalamus after 3.5 mins postinjection; assay type: ADME, organism-based, Macaca fascicularis; design: unit not given here; settings: in vivo
Putamen [59] = experiment: Drug uptake in anesthetized cynomolgus monkey brain putamen after 9.5 mins postinjection; assay type: ADME, organism-based, Macaca fascicularis; design: unit not given here; settings: in vivo
Thalamus [60] = experiment: Drug uptake in anesthetized cynomolgus monkey brain thalamus after 55 mins postinjection; assay type: ADME, organism-based, Macaca fascicularis; design: unit not given here; settings: in vivo
Thalamus [61] = experiment: Drug uptake in anesthetized cynomolgus monkey brain thalamus after 65 mins postinjection; assay type: ADME, organism-based, Macaca fascicularis; design: unit not given here; settings: in vivo
Midbrain [62] = experiment: Drug uptake in anesthetized cynomolgus monkey brain midbrain after 3.5 mins postinjection; assay type: ADME, organism-based, Macaca fascicularis; design: unit not given here; settings: in vivo
Midbrain [63] = experiment: Drug uptake in anesthetized cynomolgus monkey brain midbrain after 22.5 mins postinjection; assay type: ADME, organism-based, Macaca fascicularis; design: unit not given here; settings: in vivo, 0.375 h
Midbrain [64] = experiment: Drug uptake in anesthetized cynomolgus monkey brain midbrain after 27.5 mins postinjection; assay type: ADME, organism-based, Macaca fascicularis; design: unit not given here; settings: in vivo
Midbrain [65] = experiment: Drug uptake in anesthetized cynomolgus monkey brain midbrain after 55 mins postinjection; assay type: ADME, organism-based, Macaca fascicularis; design: unit not given here; settings: in vivo
Midbrain [66] = experiment: Drug uptake in anesthetized cynomolgus monkey brain midbrain after 75 mins postinjection; assay type: ADME, organism-based, Macaca fascicularis; design: unit not given here; settings: in vivo, 1.25 h
Midbrain [67] = experiment: Drug uptake in anesthetized cynomolgus monkey brain midbrain after 85 mins postinjection; assay type: ADME, organism-based, Macaca fascicularis; design: unit not given here; settings: in vivo
Midbrain [68] = experiment: Drug uptake in anesthetized cynomolgus monkey brain midbrain after 125 mins postinjection; assay type: ADME, organism-based, Macaca fascicularis; design: unit not given here; settings: in vivo

O=C(OCC[18F])C1C2CCC(CC1c1cccc(/C=C\Br)c1)N2 (stereo not drawn) gave a Ratio [1] of 1.4, a Ratio [2] of 1.4 and a Ratio [3] of 1.6. The Ratio [4] was 1.3, the Ratio [5] was 1.9 and the Drug uptake [6] was 2.17. For the same compound, the Drug uptake [7] was 2.66, the Drug uptake [8] was 3.45 and the Drug uptake [9] was 3.15. It also gave a Drug uptake [10] of 0.22, a Drug uptake [11] of 2.39 and a Drug uptake [12] of 2.69. For the same compound, the Drug uptake [13] was 2.78, the Drug uptake [14] was 2.75 and the Drug uptake [15] was 1.97. For the same compound, the Ratio [16] was 1.2, the Drug uptake (Putamen [17]) was 4.21 and the Drug uptake (Putamen [18]) was 3.92. It also gave a Drug uptake (Putamen [19]) of 2.98, a Ratio [20] of 1.2 and a Ratio [21] of 0.9. For the same compound, the Drug uptake (Pons [22]) was 0.01, the Drug uptake (Pons [23]) was 0.82 and the Drug uptake (Pons [24]) was 1.78. The Drug uptake (Pons [25]) was 4.34, the Drug uptake (Thalamus [26]) was 3.3 and the Drug uptake (Pons [27]) was 3.63. The Drug uptake (Pons [28]) was 3.51, the Drug uptake [29] was 1.8 and the Ratio [30] was 1.2. For the same compound, the Drug uptake (Caudate [31]) was 3.08, the Drug uptake (Caudate [32]) was 2.92 and the Ratio [33] was 0.8. It also gave a Ratio [34] of 1.6, a Drug uptake (Pons [35]) of 3.9 and a Drug uptake (Pons [36]) of 3.72. The Drug uptake (Medulla [37]) was 0, the Drug uptake (Medulla [38]) was 2.07 and the Drug uptake (Medulla [39]) was 3.76. It also gave a Drug uptake (Medulla [40]) of 4.31, a Ratio [41] of 0.9 and a Ratio [42] of 1.1. The Ratio [43] was 1.1, the Ratio [44] was 1.3 and the Drug uptake (Medulla [45]) was 4.14. It also gave a Drug uptake (Medulla [46]) of 2.72, a Drug uptake [47] of 0 and a Drug uptake [48] of 3.84. The Drug uptake [49] was 3.76, the Ratio [50] was 1.8 and the Ratio [51] was 1.7. The Drug uptake (Caudate [52]) was 0.36, the Drug uptake (Caudate [53]) was 0.63 and the Drug uptake (Caudate [54]) was 3.22. It also gave a Drug uptake (Caudate [55]) of 4.1, a Drug uptake (Caudate [56]) of 4.15 and a Drug uptake (Caudate [57]) of 2.53. For the same compound, the Drug uptake (Thalamus [58]) was 0.67, the Drug uptake (Putamen [59]) was 3.59 and the Drug uptake (Thalamus [60]) was 4.38. The Drug uptake (Thalamus [61]) was 4.51, the Drug uptake (Midbrain [62]) was 0.95 and the Drug uptake (Midbrain [63]) was 4.28. For the same compound, the Drug uptake (Midbrain [64]) was 4.53, the Drug uptake (Midbrain [65]) was 4.98 and the Drug uptake (Midbrain [66]) was 4.96. It also gave a Drug uptake (Midbrain [67]) of 4.9 and a Drug uptake (Midbrain [68]) of 4.73.
